Assay results reported in US6716582B2 (priority 2000, dated 2004).
“And” between values parts separate entries of the source, which are not always exact repeats. Identical values can stand only once.

Experiments:
Format in all cases: cell-based, E. coli
[1] = system: SOS regulon luxCDABE gene fusions; assay: SOS regulon lux fusions: stress response in liquid LB; conditions: each of the eight SOS fusion strains; at least three concentrations
Description: To test the stress responses, one or two single colonies of each selected strain were used to inoculate 5.0 ml of LB medium containing 150 μg/ml of ampicillin. These cultures were grown overnight at 37° C. then diluted by adding 50 μl or 100 μl of the overnight culture into 10.0 ml of fresh LB medium (without ampicillin) and grown with agitation at 37° C. until the culture was in exponential phase with readings on a Klett-Summerson colorimeter containing the red filter of between 10 and 40. These actively growing cultures were immediately used to initiate a stress response experiment by adding 50 μl of cultures to 50 μl of LB medium containing various concentrations of chemical in the wells a 96 well luminometer plate. This division of the actively growing culture at the time of chemical addition ensured identical populations were present when the stress was imposed. Light production was measured in a Dynex ML3000 luminometer at 37° C. The dimensionless units of light production, relative light units (RLU), are obtained by comparison with the light reading from an internal light-emitting diode.
The ability of these promoter-luxCDABE fusions to report activation of the SOS stress response was tested using nalidixic acid, a known, potent chemical inducer. The final concentrations of nalidixic acid were 1, 5, 25, and 125 μg/ml for all but strain DPD2293, which was tested at 80, 40, 20, 10, 5, 2.5, and 1.25 μg/ml.
Specificity of responses was tested by measuring the effect of ethanol on these SOS regulon gene fusions.

[2] = system: yebF-luxCDABE fusion; assay: inverted yebF-luxCDABE fusion induction by DNA damaging agents; conditions: inverted yebF-lux transformants; nalidixic acid
Source text: In this case, a divergent promoter to the purT gene was present in the chromosomal fragment and strains containing the backward yebF fusion produced light. Following isolation of plasmid DNA, XmaI digestion that releases the insert DNA from the vector, religation and transformation, 10% of the transformants produced light. […] The orientation of the inserted segment to yield a fusion of yebF to the luxCDABE operon was confirmed by DNA sequence analysis.
To test inverting of a chromosomal segment in a plasmid containing divergent promoters, the backward fusion to yebF was chosen. […] In this case, a divergent promoter to the purT gene was present in the chromosomal fragment and strains containing the backward yebF fusion produced light. Following XmaI digestion, religation and transformation, 10% of the transformants produced light. […] This was verified by DNA sequence analysis. Thus, inverting chromosomal segments containing divergent promoters is possible and is facilitated if the two promoters can be distinguished by their biological activity.

[3] = system: LuxArray 1.0 luxCDABE gene fusions; assay: LuxArray 1.0 solid phase nalidixic acid perturbation; conditions: for Solid expt NA/LB: NA 5 μg/ml; for fold upregulation, nalidixic acid treated to untreated: solid LuxArray, 5 μg/ml, 4 hours
Description: The E. coli strains were grown overnight at 37° C. in 40 μl LB medium supplemented with 100 μg/ml ampicillin in a set of sixteen 96-well dishes. These cultures were designated “printing plates” and were used as the cell source to manufacture the arrays. Porous membranes (Biodyne B, Nunc) were sterilized with UV illumination for 10 min then placed in contact with pre-warmed of solid LB growth media in a culture dish (OmniTray, Nunc). Printing of 4×4 subarrays was accomplished using a BioMek 2000 (Beckman Coulter) equipped with a High Density Replication Tool (HDRT). […] After sterilization, the pins are air-dried prior to the next transfer. The E. coli strains in the LuxArray were printed onto an approximately 8×12 cm membrane in two sets of triplicates.
Arrays were printed from fresh overnight cultures onto membranes on plates containing LB media. After 6 hr of growth at 37° C. membranes were moved to pre-warmed plates containing either LB media or LB media supplemented with 5 μg/ml nalidixic acid then replaced at 37° C. to continue growing. Images were collected for each array every two hours from 0-8 hr after relocation using a cooled CCD camera (Fluor Chem 8000: f0.85 lens, 2 min exposure, AlphaInnotech).
Spot intensity of each image was determined using ArrayVision™ (Imaging Research, Toronto, Canada) and the resultant pixel density measurements imported into a template with identifiers for each spot. The average signal for each of the triplicate spots was calculated. The background signal, which results from cross illumination of neighboring spots, was calculated by finding the median of the 24 spots containing a strain with the parental plasmid on each of the triplicate arrays and the calculating the average of the three medians. This background signal was calculated at each of the time points and subtracted from each measurement at the corresponding time point. All negative numbers were converted to zero.
Data normalization to account for inhibition of growth by nalidixic acid was accomplished by finding the sum of the averaged signals of each spot in the array for each treatment at each time point. A normalization factor (NF) was calculated as follows:
NF=Total array signal (time zero, LB control)/Total array signal (time x, condition y)
Each measurement was multiplied by NF to yield a normalized signal. Ratios the nalidixic acid treated spot to the corresponding control spot were calculated using the normalized data.
The ratios of the normalized data were compared for each of the […] spots resulting from independent cultures in the array. […] Twelve gene fusions were selected by these criteria (Table 15).

In the case of CCn1cc(C(=O)O)c(=O)c2ccc(C)nc21 [Nalidixic acid, nalidixic acid], the “bioluminescence vs untreated control” value [1] is reported as “increased bioluminescence”, the induction of bioluminescence [2] is reported as “highly induced” and the “Solid expt NA/LB” value ([3]; dinG ybiB lux-a.pk0024.f5, t = 2 hr, duplicate spots) is reported as 2.5 and 3.4. For the same molecule, the “Solid expt NA/LB” value ([3]; dinG ybiB lux-a.pk0024.f5, t = 4 hr) was 3.7 and 4.2, the “Solid expt NA/LB” value ([3]; dinG ybiB lux-a.pk0024.f5, t = 6 hr) was 3.5 and 3.1 and the “Solid expt NA/LB” value ([3]; dinG ybiB lux-a.pk0024.f5, t = 8 hr) was 2.9 and 2.6. The “Solid expt NA/LB” value ([3]; dinP lux-a.pk055.a3, t = 2 hr) was 3.1 and 5.5, the “Solid expt NA/LB” value ([3]; dinP lux-a.pk055.a3, t = 6 hr) was 4.2 and 8.1 and the “Solid expt NA/LB” value ([3]; frvR frvX frvB frvA lux-a.pk046.e6, t = 2 hr) was 2.8 and 2.1. The “Solid expt NA/LB” value ([3]; frvR frvX frvB frvA lux-a.pk046.e6, t = 4 hr) was 2.3, the “Solid expt NA/LB” value ([3]; lpxA lpxB rnhB dnaE lux-a.pk061.c3, t = 2 hr) was 3.5 and 2.7 and the “Solid expt NA/LB” value ([3]; lpxA lpxB rnhB dnaE lux-a.pk061.c3, t = 4 hr) was 3.1 and 3.5. For the same molecule, the “Solid expt NA/LB” value ([3]; lpxA lpxB rnhB dnaE lux-a.pk061.c3, t = 6 hr) was 2.8 and 3.0, the “Solid expt NA/LB” value ([3]; lpxA lpxB rnhB dnaE lux-a.pk061.c3, t = 8 hr) was 1.7 and 1.9 and the “Solid expt NA/LB” value ([3]; lux-a.pk0015.d6, t = 2 hr) was 2.3 and 2.2. The “Solid expt NA/LB” value ([3]; lux-a.pk0015.d6, t = 4 hr) was 6.4 and 4.1, the “Solid expt NA/LB” value ([3]; lux-a.pk0015.d6, t = 6 hr) was 2.7 and 1.9 and the “Solid expt NA/LB” value ([3]; lux-a.pk0015.d6, t = 8 hr) was 0.6 and 0.8. For the same molecule, the “Solid expt NA/LB” value ([3]; lux-a.pk0019.g1, t = 2 hr) was 2.5 and 4.4, the “Solid expt NA/LB” value ([3]; lux-a.pk0019.g1, t = 4 hr) was 7.7 and 8.2 and the “Solid expt NA/LB” value ([3]; lux-a.pk0019.g1, t = 6 hr) was 9.7 and 15.5. The “Solid expt NA/LB” value ([3]; lux-a.pk0019.g1, t = 8 hr) was 7.1 and 10.2, the “Solid expt NA/LB” value ([3]; lux-a.pk033.c5, t = 2 hr) was 3.7 and 2.1 and the “Solid expt NA/LB” value ([3]; lux-a.pk033.c5, t = 4 hr) was 4.3 and 3.1. For the same molecule, the “Solid expt NA/LB” value ([3]; lux-a.pk033.c5, t = 6 hr) was 3.2 and 3.3, the “Solid expt NA/LB” value ([3]; lux-a.pk033.c5, t = 8 hr) was 2.6 and 2.5 and the “Solid expt NA/LB” value ([3]; oraA lux-a.pk058.f5, t = 2 hr) was 5.1 and 4.7. The “Solid expt NA/LB” value ([3]; oraA lux-a.pk058.f5, t = 4 hr) was 7.9 and 7.7, the “Solid expt NA/LB” value ([3]; oraA lux-a.pk058.f5, t = 6 hr) was 5.9 and 5.6 and the “Solid expt NA/LB” value ([3]; oraA lux-a.pk058.f5, t = 8 hr) was 3.9 and 3.8. For the same molecule, the “fold upregulation, nalidixic acid treated to untreated” value ([3]; ruvA-lux, duplicate spots) was 1.7 fold and 2.1 fold, the “Solid expt NA/LB” value ([3]; uvrA lux-a.pk0001.b6, t = 2 hr) was 2.5 and 2.9 and the “Solid expt NA/LB” value ([3]; uvrA lux-a.pk0001.b6, t = 4 hr) was 2.3 and 2.4. For the same molecule, the “Solid expt NA/LB” value ([3]; uvrA lux-a.pk0001.b6, t = 6 hr) was 1.6 and 1.1, the “Solid expt NA/LB” value ([3]; uvrA lux-a.pk0001.b6, t = 8 hr) was 1.0 and 0.6 and the “fold upregulation, nalidixic acid treated to untreated” value ([3]; uvrD-lux, duplicate spots) was 1.6 fold and 1.9 fold. The “Solid expt NA/LB” value ([3]; yaaF lux-a.pk031.e7, t = 2 hr) was 2.1 and 2.0, the “Solid expt NA/LB” value ([3]; yaaF lux-a.pk031.e7, t = 4 hr) was 2.0 and 2.1 and the “Solid expt NA/LB” value ([3]; yaaF lux-a.pk031.e7, t = 6 hr) was 1.3 and 1.8. The “Solid expt NA/LB” value ([3]; yaaF lux-a.pk031.e7, t = 8 hr) was 1.0 and 1.5, the “Solid expt NA/LB” value ([3]; yfhJ fdx hscA yfhE lux-a.pk0019.g2, t = 2 hr) was 2.1 and the “Solid expt NA/LB” value ([3]; yfhJ fdx hscA yfhE lux-a.pk0019.g2, t = 4 hr) was 2.0 and 2.2. For the same molecule, the “Solid expt NA/LB” value ([3]; yfhJ fdx hscA yfhE lux-a.pk0019.g2, t = 6 hr) was 1.7 and 1.5, the “Solid expt NA/LB” value ([3]; yfhJ fdx hscA yfhE lux-a.pk0019.g2, t = 8 hr) was 1.4 and 1.3 and the “Solid expt NA/LB” value ([3]; yigN lux-a.pk046.f11, t = 4 hr) was 2.5 and 4.3.
